Test results as given in patent publication US9963445B2, “Chemical compounds” (SYNGENTA PARTICIPATIONS AG, priority 2013, dated 2018).

Test system: Setaria faberi
Assay: Pre-emergence herbicidal activity, glasshouse pot test
Format: in vivo
Conditions: pre-emergence spray, rate 1000 g/ha, evaluated after 13 days, scale 0-5
Outline: (§1)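 Pots of seeded soil were sprayed one day after sowing (pre-emergence) with compound formulated in acetone/water 50:50 with 0.5% Tween 20. Plants were grown in a glasshouse at 24/16 °C day/night, 14 h light, 65% humidity. Damage was scored after 13 days on a 0–5 scale (5 = total damage).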

Row | SMILES | SETFA damage score, application pre-emergence
1 | CC1=C(Cl)C(=O)N(c2ccc(Cl)cn2)C1O (stereo not drawn) [AF65] | 2
2 | CC1=C(Cl)C(=O)N(c2cc(Cl)ccn2)C1O (stereo not drawn) [AF66] | 3
3 | CC1=C(Cl)C(=O)N(c2ccc(F)cn2)C1O (stereo not drawn) [AF67] | 3

Test system: zea mays
Assay: as above
Format: in vivo
Conditions: pre-emergence spray, rate 1000 g/ha, evaluated after 13 days, scale 0-5
Outline: as §1

Row | SMILES | ZEAMX damage score, application pre-emergence
4 | CC1=C(Cl)C(=O)N(c2ccc(Cl)cn2)C1O (stereo not drawn) [AF65] | 0
5 | CC1=C(Cl)C(=O)N(c2cc(Cl)ccn2)C1O (stereo not drawn) [AF66] | 0
6 | CC1=C(Cl)C(=O)N(c2ccc(F)cn2)C1O (stereo not drawn) [AF67] | 0

Test system: Amaranthus retroflexus
Assay: as above
Format: in vivo
Conditions: pre-emergence spray, rate 1000 g/ha, evaluated after 13 days, scale 0-5
Outline: as §1

Row | SMILES | AMARE damage score, application pre-emergence
7 | CC1=C(Cl)C(=O)N(c2ccc(Cl)cn2)C1O (stereo not drawn) [AF65] | 5
8 | CC1=C(Cl)C(=O)N(c2cc(Cl)ccn2)C1O (stereo not drawn) [AF66] | 5
9 | CC1=C(Cl)C(=O)N(c2ccc(F)cn2)C1O (stereo not drawn) [AF67] | 5

Test system: Echinochloa crus-galli
Assay: as above
Format: in vivo
Conditions: pre-emergence spray, rate 1000 g/ha, evaluated after 13 days, scale 0-5
Outline: as §1

Row | SMILES | ECHCG damage score, application pre-emergence
10 | CC1=C(Cl)C(=O)N(c2ccc(Cl)cn2)C1O (stereo not drawn) [AF65] | 1
11 | CC1=C(Cl)C(=O)N(c2cc(Cl)ccn2)C1O (stereo not drawn) [AF66] | 2
12 | CC1=C(Cl)C(=O)N(c2ccc(F)cn2)C1O (stereo not drawn) [AF67] | 1

Test system: Solanum nigrum
Assay: as above
Format: in vivo
Conditions: pre-emergence spray, rate 1000 g/ha, evaluated after 13 days, scale 0-5
Outline: as §1

Row | SMILES | SOLNI damage score, application pre-emergence
13 | CC1=C(Cl)C(=O)N(c2ccc(Cl)cn2)C1O (stereo not drawn) [AF65] | 4
14 | CC1=C(Cl)C(=O)N(c2cc(Cl)ccn2)C1O (stereo not drawn) [AF66] | 5
15 | CC1=C(Cl)C(=O)N(c2ccc(F)cn2)C1O (stereo not drawn) [AF67] | 3

Test system: Alopecurus myosuroides
Assay: as above
Format: in vivo
Conditions: pre-emergence spray, rate 1000 g/ha, evaluated after 13 days, scale 0-5
Outline: as §1

Row | SMILES | ALOMY damage score, application pre-emergence
16 | CC1=C(Cl)C(=O)N(c2ccc(Cl)cn2)C1O (stereo not drawn) [AF65] | 2
17 | CC1=C(Cl)C(=O)N(c2cc(Cl)ccn2)C1O (stereo not drawn) [AF66] | 2
18 | CC1=C(Cl)C(=O)N(c2ccc(F)cn2)C1O (stereo not drawn) [AF67] | 2

Test system: Solanum nigrum
Assay: Post-emergence herbicidal activity, glasshouse pot test
Format: in vivo
Conditions: Application post-emergence, rate 1000 g/ha, evaluated after 13 days
Experimental: Seeds of a variety of test species were sown in standard soil in pots. After 8 days cultivation (post-emergence) under controlled conditions in a glasshouse (at 24/16° C., day/night; 14 hours light; 65% humidity), the plants were sprayed with an aqueous spray solution derived from the formulation of the technical active ingredient in acetone/water (50:50) solution containing 0.5% Tween 20 (polyoxyethelyene sorbitan monolaurate, CAS RN 9005-64-5). The test plants were then grown in a glasshouse under controlled conditions (at 24/16° C., day/night; 14 hours light; 65% humidity) and watered twice daily. After 13 days, the test was evaluated (5=total damage to plant; 0=no damage to plant).
ABUTH=Abutilon theophrasti; SOLNI=Solanum nigrum; AMARE=Amaranthus retroflexus; SETFA=Setaria faberi; ALOMY=Alopecurus myosuroides; ECHCG=Echinochloa crus-galli, ZEAMX=zea mays.

Row | SMILES | SOLNI herbicidal damage score
19 | CC1=C(Cl)C(=O)N(c2ccc(Cl)cn2)C1O (stereo not drawn) [AF65] | 5
20 | CC1=C(Cl)C(=O)N(c2cc(Cl)ccn2)C1O (stereo not drawn) [AF66] | 5
21 | CC1=C(Cl)C(=O)N(c2ccc(F)cn2)C1O (stereo not drawn) [AF67] | 5

Test system: Setaria faberi
Assay: as above
Format: in vivo
Design: key: 0 = no damage to plant, 5 = total damage to plant
Conditions: Application post-emergence, rate 1000 g/ha, evaluated after 13 days
Outline: (§2)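 Damage rated 0 (none) to 5 (total) 13 days after spraying. Plants were treated post-emergence at 8 days after sowing, using an acetone/water (50:50) formulation with 0.5% Tween 20 diluted to an aqueous spray.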

Row | SMILES | SETFA herbicidal damage score
22 | CC1=C(Cl)C(=O)N(c2ccc(Cl)cn2)C1O (stereo not drawn) [AF65] | 5
23 | CC1=C(Cl)C(=O)N(c2cc(Cl)ccn2)C1O (stereo not drawn) [AF66] | 5
24 | CC1=C(Cl)C(=O)N(c2ccc(F)cn2)C1O (stereo not drawn) [AF67] | 4

Test system: zea mays
Assay: as above
Format: in vivo
Design: key: 0 = no damage to plant, 5 = total damage to plant
Conditions: Application post-emergence, rate 1000 g/ha, evaluated after 13 days
Outline: as §2

Row | SMILES | ZEAMX herbicidal damage score
25 | CC1=C(Cl)C(=O)N(c2ccc(Cl)cn2)C1O (stereo not drawn) [AF65] | 1
26 | CC1=C(Cl)C(=O)N(c2cc(Cl)ccn2)C1O (stereo not drawn) [AF66] | 2
27 | CC1=C(Cl)C(=O)N(c2ccc(F)cn2)C1O (stereo not drawn) [AF67] | 1

Test system: Amaranthus retroflexus
Assay: as above
Format: in vivo
Design: key: 0 = no damage to plant, 5 = total damage to plant
Conditions: Application post-emergence, rate 1000 g/ha, evaluated after 13 days
Outline: as §2

Row | SMILES | AMARE herbicidal damage score
28 | CC1=C(Cl)C(=O)N(c2ccc(Cl)cn2)C1O (stereo not drawn) [AF65] | 5
29 | CC1=C(Cl)C(=O)N(c2cc(Cl)ccn2)C1O (stereo not drawn) [AF66] | 5
30 | CC1=C(Cl)C(=O)N(c2ccc(F)cn2)C1O (stereo not drawn) [AF67] | 5

Test system: Echinochloa crus-galli
Assay: as above
Format: in vivo
Design: key: 0 = no damage to plant, 5 = total damage to plant
Conditions: Application post-emergence, rate 1000 g/ha, evaluated after 13 days
Outline: as §2

Row | SMILES | ECHCG herbicidal damage score
31 | CC1=C(Cl)C(=O)N(c2ccc(Cl)cn2)C1O (stereo not drawn) [AF65] | 4
32 | CC1=C(Cl)C(=O)N(c2cc(Cl)ccn2)C1O (stereo not drawn) [AF66] | 4
33 | CC1=C(Cl)C(=O)N(c2ccc(F)cn2)C1O (stereo not drawn) [AF67] | 4

Test system: Alopecurus myosuroides
Assay: as above
Format: in vivo
Design: key: 0 = no damage to plant, 5 = total damage to plant
Conditions: Application post-emergence, rate 1000 g/ha, evaluated after 13 days
Outline: as §2

Row | SMILES | ALOMY herbicidal damage score
34 | CC1=C(Cl)C(=O)N(c2ccc(Cl)cn2)C1O (stereo not drawn) [AF65] | 4
35 | CC1=C(Cl)C(=O)N(c2cc(Cl)ccn2)C1O (stereo not drawn) [AF66] | 4
36 | CC1=C(Cl)C(=O)N(c2ccc(F)cn2)C1O (stereo not drawn) [AF67] | 3
